Drawing on patent EP0084756A1, “Trisubstituted oxaza compounds” (CIBA-GEIGY AG, priority 1982, dated 1983), this text covers ED50-Wert for 1 compound.

Molecules are shown by their SMILES. ≈ marks a conversion by molar mass, not a printed value.

The subject of this experiment is mit Crotonöl induzierten Rattenohroedems. Briefly: Croton oil-induced rat ear oedema, method of Tonelli and Thibault, local application. Format: in vivo, Normalratte. To be noted: inhibition of croton oil-induced rat ear oedema in the normal rat. Here is the method: Diese Eigenschaft lässt sich beispielsweise nach der von G. Tonelli, L. Thibault, Endocrinology 77, 625 (1965) entwickelten Methode durch Hemmung des mit Crotonöl induzierten Rattenohroedems bei der Normalratte im Dosisbereich von etwa 1 bis etwa 100 mg/ml nachweisen.

For `CCOC(=O)Cc1nc(-c2ccccc2)c(-c2cccnc2)[nH]1` [2-[4-Phenyl-5-(3-pyridyl)-imidazol-2-yl]-essigsäureethylester], the ED50-Wert was 17 mg/mL (≈ 55.3 mM).
